# Laboratory results as given in ChEMBL document CHEMBL2311317, “Organosilicon molecules with medicinal applications” (J Med Chem, 2013).
# Biological target: Matrix protein 2 (Influenza A virus (A/Udorn/307/1972(H3N2)), UniProt P0DOF8, V27A)
row,Structure (SMILES),IC50 [µM]
1,NC1CC[Si]2(CCCC2)CC1,96.3
2,NC1CCC2(CCCC2)CC1,319
